# Active and inactive are the calls of the source. No rule for the calls is given here.
# Tests used:
# Echinochloa oryzicola = assay: Herbicidal activity against Echinochloa oryzicola assessed as phytotoxic activity ratings (0- no effect to 5-complete killing rating scale) at 100 g/a measured after 3 weeks post compound treatment under green house conditions; type: functional
# Oryza sativa [1] = assay: Phytotoxicity against directly seeded Oryza sativa (rice) seedlings assessed as phytotoxic activity ratings (0- no effect to 5-complete killing rating scale) at 100 g/a measured after 3 weeks post compound treatment under green house conditions; type: organism-based; conditions: in vivo, 504 h
# [2] = system: Schoenoplectiella juncoides; assay: Herbicidal activity against Schoenoplectiella juncoides var. Hotarui Ohwi assessed as phytotoxic activity ratings (0- no effect to 5-complete killing rating scale) at 100 g/a measured after 3 weeks post compound treatment under green house conditions; type: functional
# Oryza sativa [3] = assay: Phytotoxicity against transplanted Oryza sativa (rice) seedlings assessed as phytotoxic activity ratings (0- no effect to 5-complete killing rating scale) at 100 g/a measured after 3 weeks post compound treatment under green house conditions; type: organism-based; conditions: in vivo, 504 h
# Cyperus difformis = assay: Herbicidal activity against Cyperus difformis assessed as phytotoxic activity ratings (0- no effect to 5-complete killing rating scale) at 100 g/a measured after 3 weeks post compound treatment under green house conditions; type: functional
# Cyperus serotinus = assay: Herbicidal activity against Cyperus serotinus assessed as phytotoxic activity ratings (0- no effect to 5-complete killing rating scale) at 3.1 to 100 g/a measured after 3 weeks post compound treatment under green house conditions; type: functional
SMILES,Activity (Echinochloa oryzicola) [%],Activity (Oryza sativa [1]) [%],Activity [2] [%],Activity (Oryza sativa [3]) [%],Activity (Cyperus difformis) [%],Activity (Cyperus serotinus)
C[C@@H](NC(=O)Nc1cccc(F)c1F)c1ccccc1,0,0,0,0,10,inactive
CCOC(=O)c1ccccc1NC(=O)N[C@H](C)c1ccccc1,0,0,0,0,0,inactive
CCOC(=O)c1ccc(NC(=O)N[C@H](C)c2ccccc2)cc1,0,0,0,0,0,inactive
C[C@@H](NC(=O)Nc1cccc(F)c1)c1ccccc1,0,0,0,0,10,inactive
C[C@H](NC(=O)Nc1cccc(Cl)c1)c1ccccc1,0,0,0,0,10,inactive
C[C@H](NC(=O)Nc1ccc(F)c(F)c1)c1ccccc1,0,0,0,0,0,inactive
C[C@H](NC(=O)Nc1cccc(Br)c1)c1ccccc1,0,0,0,0,10,inactive
C[C@H](NC(=O)Nc1cccc(F)c1)c1ccccc1,10,10,0,0,10,inactive
CC(=O)c1ccc(NC(=O)N[C@@H](C)c2ccccc2)cc1,0,0,0,0,0,inactive
C[C@@H](NC(=O)Nc1cccc(Cl)c1Cl)c1ccccc1,0,0,0,0,0,inactive
C[C@@H](NC(=O)Nc1cc(C(C)(C)C)ccc1C(C)(C)C)c1ccccc1,0,0,0,0,0,inactive
Cc1ccc(NC(=O)N[C@H](C)c2ccccc2)c(F)c1,0,0,0,0,0,inactive
CCc1cccc(CC)c1NC(=O)N[C@@H](C)c1ccccc1,0,0,0,0,0,inactive
CC(=O)c1cccc(NC(=O)N[C@@H](C)c2ccccc2)c1,0,0,0,0,0,inactive
C[C@@H](NC(=O)Nc1ccccc1Br)c1ccccc1,0,0,0,0,10,inactive
CCCCCCc1ccc(NC(=O)N[C@@H](C)c2ccccc2)cc1,0,0,0,0,0,inactive
C[C@@H](NC(=O)Nc1ccc(Cl)c(Cl)c1)c1ccccc1,0,0,0,0,0,inactive
CC(=O)c1ccc(NC(=O)N[C@H](C)c2ccccc2)cc1,40,0,0,0,0,inactive
COc1ccc(NC(=O)N[C@H](C)c2ccccc2)cc1,0,0,0,0,0,inactive
C[C@H](NC(=O)Nc1cccc(C(F)(F)F)c1F)c1ccccc1,0,0,0,0,0,inactive
CCCCCc1ccc(NC(=O)N[C@@H](C)c2ccccc2)cc1,0,0,0,0,0,inactive

SMILES,Activity (Echinochloa oryzicola) [%],Activity (Oryza sativa [1]) [%],Activity [2] [%],Activity (Oryza sativa [3]) [%],Activity (Cyperus difformis) [%],Activity (Cyperus serotinus)
C[C@@H](NC(=O)Nc1ccc(I)cc1)c1ccccc1,0,0,0,0,0,inactive
C[C@H](NC(=O)Nc1ccc(I)cc1)c1ccccc1,0,0,0,0,0,inactive
C[C@@H](NC(=O)Nc1cc(F)ccc1F)c1ccccc1,0,0,0,0,0,inactive
CCCCc1ccc(NC(=O)N[C@H](C)c2ccccc2)cc1,10,10,0,0,0,inactive
CCCCCCCc1ccc(NC(=O)N[C@H](C)c2ccccc2)cc1,0,0,0,0,0,inactive
C[C@@H](NC(=O)Nc1ccc(F)c(F)c1)c1ccccc1,0,0,0,0,0,inactive
C[C@H](NC(=O)Nc1cc(C(F)(F)F)cc(C(F)(F)F)c1)c1ccccc1,0,0,0,0,0,inactive
C[C@H](NC(=O)Nc1ccc(Cl)c(Cl)c1)c1ccccc1,0,0,0,0,0,inactive
C[C@H](NC(=O)Nc1cccc(I)c1)c1ccccc1,0,0,0,0,10,inactive
C[C@@H](NC(=O)Nc1cc(C(F)(F)F)ccc1F)c1ccccc1,80,10,0,0,0,inactive
C[C@@H](NC(=O)Nc1cccc(Br)c1)c1ccccc1,0,0,0,0,10,inactive
C[C@@H](NC(=O)Nc1cccc(Cl)c1)c1ccccc1,0,0,0,0,10,inactive
CCCCCc1ccc(NC(=O)N[C@H](C)c2ccccc2)cc1,0,0,0,0,0,inactive
C[C@@H](NC(=O)Nc1cccc(I)c1)c1ccccc1,0,0,0,0,10,inactive
CCOC(=O)c1ccc(NC(=O)N[C@@H](C)c2ccccc2)cc1,0,0,0,0,0,inactive
CCc1cccc(CC)c1NC(=O)N[C@H](C)c1ccccc1,0,0,0,0,0,inactive
CC(=O)c1cccc(NC(=O)N[C@H](C)c2ccccc2)c1,0,0,0,0,0,inactive
C[C@@H](NC(=O)Nc1ccc(F)cc1F)c1ccccc1,0,0,0,0,0,inactive
CC(=O)c1ccccc1NC(=O)N[C@@H](C)c1ccccc1,0,0,0,0,0,inactive
C[C@H](NC(=O)Nc1ccccc1Cl)c1ccccc1,0,0,0,0,10,inactive

# — ChEMBL document CHEMBL3046383, “Enantioselective Herbicidal Activity of Chiral α-Methylbenzylphenylureas against Cyperaceae and Echinochloa Paddy Weeds” (Biosci Biotechnol Biochem, 1998)
